According to article PMC10077475, “DG9-conjugated morpholino rescues phenotype in SMA mice by reaching the CNS via a subcutaneous administration” (JCI Insight, 2023):

Test system: severe SMA mouse model (Taiwanese model)
Test: Survival of severe SMA mice after a single subcutaneous injection at PD0
Format: in vivo
Settings: single subcutaneous injection at PD0, 40 mg/kg, until humane endpoint
Procedure: To examine whether DG9 peptide can increase the efficacy of PMO, we conjugated it to an 18-mer PMO with a sequence identical to nusinersen. The DG9-PMO, unconjugated PMO, and MOE were injected into SMA model mice [Cg-Tg(SMN2)2HungSmn1^tm1Hung/J; abbreviated as Smn^–/– SMN2^Tg/Tg; commonly called the Taiwanese model]. We also used an arginine-rich peptide (R6G) that is currently being explored in clinical trials for Duchenne muscular dystrophy (DMD) and used in preclinical studies for Hutchinson-Gilford progeria syndrome ([37], [38]). The benchmark control peptide R6G was conjugated to the same PMO sequence used in our study (R6G-PMO). […] We subcutaneously injected mice with the AOs or saline (nontreated, NT) administered at postnatal day 0 (PD0) at 2 doses: 40 mg/kg or 80 mg/kg. In our preliminary experiments, we also tested lower doses of 10 and 20 mg/kg (data not shown). […] The survival was recorded until a humane endpoint was reached. For the 40 mg/kg doses, the median survival was 12 days for unconjugated PMO, 15.5 days for MOE, and 17 days for R6G-PMO, which was increased to 58 days for DG9-PMO treatment (Figure 1A and Supplemental Figure 1A; supplemental material available online with this article; https://doi.org/10.1172/jci.insight.160516DS1). The median survival increased to 57 days for unconjugated PMO, 64 days for MOE, and 121 days for DG9-PMO at the higher dose of 80 mg/kg (Figure 1A). […] In spite of no statistical difference between DG9-PMO and MOE groups, the median survival of DG9-PMO still was higher than MOE, as only 1 mouse was alive until PD200 following a 40 mg/kg injection of MOE.
SMA-transgenic mice [JAX stock 005058 FVB.Cg-Tg(SMN2)2HungSmn1^tm1Hung/J] (Smn^–/–; SMN2^Tg/Tg), also known as Taiwanese mice, were purchased from Jackson Laboratory. Heterozygous mice for Smn1 (Smn1^+/–; SMN2^–/–) generated by us were crossed with mice homozygous for Smn1 Smn^–/–; SMN2^Tg/Tg generated by us to obtain the SMA mice (Smn^–/–; SMN2^Tg/–) or the heterozygous healthy control (Smn1^+/–; SMN2^Tg/–). The SMA mice display a severe overt phenotype similar to patients with SMA type I. The mice were genotyped using a PCR assay on genomic DNA isolated from tail biopsies using the Phire Tissue Direct PCR Kit (Thermo Fisher Scientific) as per the manufacturer’s instructions. The DNA was amplified using the primers described in Supplemental Table 1 using the condition Mouse Smn: 98°C/5 minutes → 98°C/5 s 58°C/10 s 72°C/10 s × 35 cycles → 72°C/1 minute.
Injections were carried out using a 30-gauge Hamilton syringe. SMA mice identified following genotyping were randomly assigned to a treatment group. The researcher injecting mice was blinded to the treatment. SMA neonates were subcutaneously injected with 40 or 80 mg/kg of AOs at PD0, while NT and heterozygous control mice were injected with saline (n = 10–49) per group. Tissues including the quadriceps muscle, liver, kidney, spleen, diaphragm, intercostal muscle, heart, brain, and spinal cord were collected and snap-frozen in dry ice– cooled isopentane, then subsequently stored at –80°C.

RRRRRRG [R6G-PMO]
median survival: 17 days
